pEC50: −log10 of the molar value. “And” between values parts separate entries of the source, which are not always exact repeats. Identical values can stand only once.
Experiments:
HSP90 = HSP90 expression in neuro2A cells, western blot; assay type: cell-based, mouse; details: 48 hours, GGTI-298
Protocol: (§1) Differentiation was induced and cells incubated with geranylgeranyl transferase I inhibitor, GGTI-298. Cells were harvested and lysates were prepared and analyzed by western blot for HSP70 and HSP90. Western signals in the absence of the compounds were normalized as 1.00.

SOD1 mice = assay: Survival in the SOD1 mouse model of ALS; assay type: in vivo
[1] = system: Rat primary motor neurons; assay: Axon extension of rat primary motor neurons; assay type: cell-based; details: 72 hrs; read-out: EC50 (cells extending axons)
Protocol: Rat primary motor neurons were isolated from embryonic spinal cords in accordance with the method of Henderson et al.; J Cohen and G P Wilkin (ed.), Neural Cell Culture, (1995) p69-81 which is herein incorporated by reference in its entirety. Briefly, spinal cords were dissected from day 15 embryo (E15) and incubated in a trypsin solution, and followed by DNase treatment to release spinal cord cells from tissue fragments. The cell suspension was centrifuged to remove tissue fragments. Then motor neurons were enriched by density gradient centrifugation.
Motor neurons were cultured in serum-free neurobasal medium containing insulin, forskolin, 3-isobutyl-1-methylxanthine, neurotrophic factors, Bovine serum albumin, selenium, transferrin, putrescine, progesterone and B27 supplement in tissue culture plate coated with poly-ornithine and laminin.
Rat primary motor neurons were prepared and cultured as described in Example 13. […] The cells extending axons were counted in five different fields for each treatment after 72 hrs. Percentage of positive cells relative to total cells in the same magnification field was calculated and the results were expressed as means+/−standard deviations, n=5.

[2] = system: Murine neuro2A neuroblastoma cells; assay: Neurite outgrowth of neuro2A cells with GGTI-298 (Example 30); assay type: cell-based, mouse
Protocol: Differentiation was induced and cells incubated with geranylgeranyl transferase I inhibitor, GGTI-298. After 24 h digital images were taken and neurite outgrowth was quantified. The comparisons of the neuroprotective effect of these three compounds are shown below.
The estimated mean log10 counts, from five replicate wells for each treatment group were calculated by PROC GLM in SAS assuming a pooled estimate of variation.
The estimated mean log 10 counts from five replicate wells for each treatment group were calculated by PROC GLM in SAS assuming a pooled estimate of variation.
Differences in mean log(counts) between treatments for each concentration were calculated using PROC GLM in SAS. The p-value given is for the comparison of the estimated difference to zero, the expected difference value for no treatment effect. The anti-log of the differences represent the estimated ratio of counts (relative effect on inhibition) and are tabulated below along with the lower and upper 95% confidence intervals.

Sprague Dawley rats = assay: Kainic acid stereotactic hippocampus injection model, fraction of cells damaged; assay type: in vivo, rat; details: for Difference of mean fraction damaged to pooled PBS / Mean fraction of cells damaged in the hippocampus: 12 mg/kg oral; for Mean fraction of cells damaged in the hippocampus: pooled PBS 0.187
Protocol: CNS-102 was administered orally to Sprague Dawley rats at 12 mg/kg. After dosing, KA was stereotactically injected into the hippocampus at 24, 48, 72, 96 and 168 hours to induce neuron damage. After 24 h, hippocampus tissue was collected, stained, and imaged. The scans were analyzed by Image J to calculate the fraction of cells having KA-induced damage. Average fraction damaged in the hippocampus from ten animals for each treatment (PBS vs. 12 mg/kg CNS-102) by time (24, 48, 72, 96 and 168 hours) combination was estimated with PROC MIXED in SAS. Comparisons of the CNS-102 treatment groups to the pooled PBS treatment at the different times can be made, giving the results tabulated below.
The fraction of cells damaged in the kainic acid model was determined on 130 rats, each receiving one dose of CNS-102 at either 0, 1, 3, 6, 12 or 24 mg/kg. PBS was used for dosing at 0 mg/kg. The linear model of the log10 percent damage versus concentration is graphically shown FIG. 5.
After dosing, KA was stereotactically injected into the hippocampus at 72 hours to induce neuron damage. After 24 h, hippocampus tissue was collected, stained, and imaged. The scans were analyzed by Image J to calculate the fraction of cells having KA-induced damage.
The indicated compounds or vehicle control were orally dosed to Sprague-Dawley rats, and Kainic acid was injected. After dosing, KA was stereotactically injected into the hippocampus at 72 hours to induce neuron damage. After 24 h, hippocampus tissue was collected, stained, and imaged. The scans were analyzed by Image J to calculate the fraction of cells having KA-induced damage. Neurons damaged by Kainic acid (mean of hippocampus CA3 neurons damaged) were quantified.

HSP70 [3] = assay: HSP70 induction in rat hippocampus with or without kainic acid injection (immunohistochemistry, western blot); assay type: in vivo; details: KA stereotactically injected in hippocampus; localized in the injection site
Protocol: Stereotactic injections of Kainic acid into rat hippocampus tissues led to increased damages in neurons. […] Under this condition, neurons and HSP70 expression was stained by immunohistochemistry techniques. HSP70 expression was induced in a very specific area only that KA was injected. The induced area was not stained by HSP70 antibody when KA was not injected, but CNS-102 was dosed.
HSP70 induction by dosing CNS-102 in the absence of the KA injection was limited in western blot experiments using hippocampus lysates. 120% or 130% of HSP70 expression could be seen by comparing those of vehicle dosing control experiments.

HSP70 [4] = assay: HSP70 expression in neuro2A cells, western blot; assay type: cell-based, mouse; details: for HSP70 western signal (absence of compounds = 1.00): 48 hours, GGTI-298
Protocol: as §1

[5] = 10 nM, CNS-101/CNS-102 experiment
[6] = 100 nM, CNS-101/CNS-102 experiment
[7] = 100 nM, CNS-102/CNS-103 experiment
[8] = 1000 nM, CNS-101/CNS-102 experiment
[9] = 1000 nM, CNS-102/CNS-103 experiment
[10] = 10000 nM, CNS-101/CNS-102 experiment

Compound: CC(=O)CC/C=C(\C)CC/C=C(\C)CC/C=C(\C)CCC=C(C)C [CNS-102]
- HSP90 western signal (absence of compounds = 1.00) (HSP90; 100 nM): 3.29
- HSP90 western signal (absence of compounds = 1.00) (HSP90; 1 μM): 1.74
- HSP90 western signal (absence of compounds = 1.00) (HSP90; 10 μM): 1.21
- Median Survival (SOD1 mice; CNS-102 12 mg/kg or riluzole 8 mg/kg daily oral from P38, vehicle 125.0): 133.0 days
- % Increase in median time to death compared to vehicle group (SOD1 mice; parametric regression (gamma distribution)): 9% and 9.5%
- pEC50 [1]: 9.04
- Ratio % of neurite outgrowth, CNS-102 to CNS-101 ([2]; 10 nM): 113.6%
- Protection % [2, 5]: 16.6%
- Median Counts (cells with neurite outgrowth) ([2]; 10 nM, CNS-101/CNS-102 experiment, no inhibition 95.5, PBS 21.5): 33.8
- ratio of counts relative to no inhibition [2, 5]: 0.354
- Ratio % of neurite outgrowth, CNS-102 to CNS-101 ([2]; 100 nM): 112.1%
- Ratio % of neurite outgrowth, CNS-102 to CNS-103 ([2]; 100 nM): 114.3%
- Protection % [2, 6]: 29.6%
- Median Counts (cells with neurite outgrowth) ([2]; 100 nM, CNS-101/CNS-102 experiment, no inhibition 95.5, PBS 21.5): 43.4
- ratio of counts relative to no inhibition [2, 6]: 0.454
- Protection % [2, 7]: 35.9%
- Median Counts (cells with neurite outgrowth) ([2]; 100 nM, CNS-102/CNS-103 experiment, no inhibition 60.3, PBS 18.5): 33.5
- ratio of counts relative to no inhibition [2, 7]: 0.556
- Ratio % of neurite outgrowth, CNS-102 to CNS-101 ([2]; 1000 nM): 122.7%
- Ratio % of neurite outgrowth, CNS-102 to CNS-103 ([2]; 1000 nM): 83.0%
- Protection % [2, 8]: 39.9%
- Median Counts (cells with neurite outgrowth) ([2]; 1000 nM, CNS-101/CNS-102 experiment, no inhibition 95.5, PBS 21.5): 51.0
- ratio of counts relative to no inhibition [2, 8]: 0.534
- Protection % [2, 9]: 12.7%
- Median Counts (cells with neurite outgrowth) ([2]; 1000 nM, CNS-102/CNS-103 experiment, no inhibition 60.3, PBS 18.5): 23.8
- ratio of counts relative to no inhibition [2, 9]: 0.395
- Ratio % of neurite outgrowth, CNS-102 to CNS-101 ([2]; 10000 nM): 137.8%
- Protection % [2, 10]: 22.6%
- Median Counts (cells with neurite outgrowth) ([2]; 10000 nM, CNS-101/CNS-102 experiment, no inhibition 95.5, PBS 21.5): 38.2
- ratio of counts relative to no inhibition [2, 10]: 0.400
- maximum protection ([2]; CNS-101/CNS-102 experiment (FIG. 4A)): ~40%
- maximum protection ([2]; CNS-102/CNS-103 experiment (FIG. 4B)): ~36%
- Difference of mean fraction damaged to pooled PBS (Sprague Dawley rats; KA at 24 hours): 0.005
- Difference of mean fraction damaged to pooled PBS (Sprague Dawley rats; KA at 48 hours): −0.064
- Difference of mean fraction damaged to pooled PBS (Sprague Dawley rats; KA at 72 hours): −0.092
- Difference of mean fraction damaged to pooled PBS (Sprague Dawley rats; KA at 96 hours): −0.056
- Difference of mean fraction damaged to pooled PBS (Sprague Dawley rats; KA at 168 hours): −0.026
- Mean fraction of cells damaged in the hippocampus (Sprague Dawley rats; KA injected at 24 hours): 0.193
- Mean fraction of cells damaged in the hippocampus (Sprague Dawley rats; KA injected at 48 hours): 0.123
- Mean fraction of cells damaged in the hippocampus (Sprague Dawley rats; KA injected at 72 hours): 0.096
- Mean fraction of cells damaged in the hippocampus (Sprague Dawley rats; KA injected at 96 hours): 0.131
- Mean fraction of cells damaged in the hippocampus (Sprague Dawley rats; KA injected at 168 hours): 0.162
- Mean of Hippocampus CA3 Neurons Damaged (Sprague Dawley rats; 24 mg/Kg rat oral, KA at 72 hours): 19.8182 Arbitrary units
- minimal effective dose (Sprague Dawley rats; one dose of 0, 1, 3, 6, 12 or 24 mg/kg, kainic acid model): 12 mg/kg
- timepoint of maximal protection effect (Sprague Dawley rats; single dose of 12 mg/kg): 72 h
- HSP70 induction (HSP70 [3]): strong induction of HSP70
- HSP70 western signal (absence of compounds = 1.00) (HSP70 [4]; 100 nM): 1.38
- HSP70 western signal (absence of compounds = 1.00) (HSP70 [4]; 1 μM): 2.05
- HSP70 western signal (absence of compounds = 1.00) (HSP70 [4]; 10 μM): 2.14
- induction of HSP70 expression (HSP70 [4]; various concentrations): induce expression of HSP70

Source: patent US20150025077A1 (COYOTE PHARMACEUTICALS, INC., priority 2012, published 2015)
